From patent US8580802B2, “Pyrrolo[2,3-D]pyrimidines as inhibitors of Janus kinases” (Vertex Pharmaceuticals Incorporated, priority 2005, dated 2013)

Legend:
JAK2 = JAK2 (Homo sapiens, UniProt O60674); test: JAK2 Inhibition Assay; assay type: biochemical; conditions: JAK-2 enzyme, 15 μM poly(Glu)4Tyr, 12 μM ATP
Method in brief: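 Radiometric kinase assay with 1 nM JAK2 in pH 7.4 HEPES buffer (10 mM MgCl2, 1 mM DTT, 0.01% BSA), final 15 μM poly(Glu)4Tyr and 12 μM [33P]-ATP. Run 20 min at 25 °C, stopped with TCA; 33P incorporation captured on glass-fibre filters and read by scintillation counting.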

JAK3 = biological target: T1, JAK3 (Homo sapiens, UniProt P52333); test: JAK3 Inhibition Assay; assay type: biochemical; conditions: 1 nM JAK3, 1 μM poly(Glu)4Tyr, 5 μM ATP, 25° C.; read-out: enzyme inhibition data (Ki) JAK3
T1 sequence (P52333 1-1124): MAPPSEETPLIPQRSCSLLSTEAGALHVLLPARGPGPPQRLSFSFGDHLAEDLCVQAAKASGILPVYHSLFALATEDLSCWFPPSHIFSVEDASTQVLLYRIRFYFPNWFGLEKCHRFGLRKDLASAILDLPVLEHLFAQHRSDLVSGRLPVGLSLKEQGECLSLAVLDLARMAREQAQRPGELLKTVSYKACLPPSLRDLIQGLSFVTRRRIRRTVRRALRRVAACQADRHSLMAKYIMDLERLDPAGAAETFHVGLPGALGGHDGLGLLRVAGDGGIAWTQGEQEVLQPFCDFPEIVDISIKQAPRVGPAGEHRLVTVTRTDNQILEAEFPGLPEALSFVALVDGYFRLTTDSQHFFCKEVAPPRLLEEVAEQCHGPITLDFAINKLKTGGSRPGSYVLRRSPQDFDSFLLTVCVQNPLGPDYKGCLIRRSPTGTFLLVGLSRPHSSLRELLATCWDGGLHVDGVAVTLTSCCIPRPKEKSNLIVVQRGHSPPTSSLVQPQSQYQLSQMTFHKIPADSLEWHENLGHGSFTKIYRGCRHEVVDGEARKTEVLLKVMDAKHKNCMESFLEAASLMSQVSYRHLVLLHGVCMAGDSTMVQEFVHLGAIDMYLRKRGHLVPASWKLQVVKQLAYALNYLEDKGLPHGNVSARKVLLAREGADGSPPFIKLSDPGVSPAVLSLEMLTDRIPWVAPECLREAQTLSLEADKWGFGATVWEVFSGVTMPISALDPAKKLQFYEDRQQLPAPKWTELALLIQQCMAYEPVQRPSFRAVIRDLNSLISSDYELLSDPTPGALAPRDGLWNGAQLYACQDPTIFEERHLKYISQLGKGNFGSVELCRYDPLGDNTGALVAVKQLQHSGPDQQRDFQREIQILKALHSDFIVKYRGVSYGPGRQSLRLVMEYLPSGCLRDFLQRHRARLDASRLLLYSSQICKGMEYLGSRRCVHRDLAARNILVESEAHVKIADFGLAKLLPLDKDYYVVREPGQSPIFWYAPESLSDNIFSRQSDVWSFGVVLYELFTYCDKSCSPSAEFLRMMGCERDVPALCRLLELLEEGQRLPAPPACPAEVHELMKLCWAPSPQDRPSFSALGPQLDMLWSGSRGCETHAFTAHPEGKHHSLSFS
Method in brief: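 Radiometric ^33P incorporation into poly(Glu)4Tyr (1 μM) by 1 nM human JAK3 at 5 μM ATP, in HEPES pH 7.4 buffer with MgCl2, DTT and BSA. Reaction ran 20 min at 25° C, stopped with TCA, then filtered before scintillation counting.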

JAK2, sequence (O60674 whole entry): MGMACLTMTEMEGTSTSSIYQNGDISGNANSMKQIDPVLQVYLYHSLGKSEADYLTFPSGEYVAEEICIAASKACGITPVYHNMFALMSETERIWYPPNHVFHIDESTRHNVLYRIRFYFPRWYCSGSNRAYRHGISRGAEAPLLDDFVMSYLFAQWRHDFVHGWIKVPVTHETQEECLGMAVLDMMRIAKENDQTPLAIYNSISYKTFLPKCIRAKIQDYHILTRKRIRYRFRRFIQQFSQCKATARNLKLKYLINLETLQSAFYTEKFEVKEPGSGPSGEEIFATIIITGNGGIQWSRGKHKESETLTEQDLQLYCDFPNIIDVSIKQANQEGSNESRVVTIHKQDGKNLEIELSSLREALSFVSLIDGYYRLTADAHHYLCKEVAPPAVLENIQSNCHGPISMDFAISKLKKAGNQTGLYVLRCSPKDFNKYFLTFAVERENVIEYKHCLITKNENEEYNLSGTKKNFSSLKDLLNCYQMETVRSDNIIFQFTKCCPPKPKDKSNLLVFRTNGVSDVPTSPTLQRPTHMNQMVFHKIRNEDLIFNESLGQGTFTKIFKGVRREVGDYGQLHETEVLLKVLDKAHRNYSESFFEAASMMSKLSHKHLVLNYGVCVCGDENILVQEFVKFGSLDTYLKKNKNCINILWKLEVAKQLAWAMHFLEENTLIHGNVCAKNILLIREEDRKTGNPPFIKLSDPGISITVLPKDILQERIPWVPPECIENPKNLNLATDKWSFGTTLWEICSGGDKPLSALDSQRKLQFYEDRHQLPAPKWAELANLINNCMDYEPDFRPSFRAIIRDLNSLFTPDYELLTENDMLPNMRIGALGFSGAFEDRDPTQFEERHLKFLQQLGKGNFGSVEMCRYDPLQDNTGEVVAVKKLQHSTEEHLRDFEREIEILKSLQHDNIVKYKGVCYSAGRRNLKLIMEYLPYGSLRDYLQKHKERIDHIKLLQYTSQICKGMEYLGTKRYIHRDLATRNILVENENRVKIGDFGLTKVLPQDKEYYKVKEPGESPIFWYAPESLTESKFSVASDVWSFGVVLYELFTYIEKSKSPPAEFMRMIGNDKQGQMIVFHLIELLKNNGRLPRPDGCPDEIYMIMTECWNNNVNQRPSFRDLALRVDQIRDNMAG

Ki (JAK2): < 500 nM
Ki (JAK3): < 500 nM
SMILES: CC[C@@H](C(=O)NCC(F)(F)F)n1cnc2cnc(-c3c[nH]c4ncncc34)nc21 [Compound 113]
